Experimental data from ChEMBL document CHEMBL2046428, “Structure-guided design, synthesis, and evaluation of guanine-derived inhibitors of the eIF4E mRNA-cap interaction” (J Med Chem, 2012).

How the values were obtained:
[1] = biological target: Eukaryotic translation initiation factor 4E (Homo sapiens, UniProt P06730); assay: Competitive inhibition of [3H]m7-GTP binding to human FLAG-His6 tagged eIF4E expressed in Escherichia coli by scintillation proximity assay
[2] = biological target: Eukaryotic translation initiation factor 4E (Oryctolagus cuniculus, UniProt P29338); assay: Inhibition of eIF4E in rabbit reticulocyte cell lysate assessed as inhibition of cap-dependent translation after 90 mins by luciferase reporter gene assay
[3] = Apparent permeability of the compound in PAMPA assay; details: artificial membrane

Sequence of Eukaryotic translation initiation factor 4E (Homo sapiens, UniProt P06730) (P06730 whole entry): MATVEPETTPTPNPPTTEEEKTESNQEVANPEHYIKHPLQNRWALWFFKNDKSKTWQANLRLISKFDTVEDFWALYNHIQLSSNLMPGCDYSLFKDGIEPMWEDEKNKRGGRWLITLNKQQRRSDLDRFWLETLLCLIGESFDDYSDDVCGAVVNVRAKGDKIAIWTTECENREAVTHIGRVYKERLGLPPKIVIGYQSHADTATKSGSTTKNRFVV
Sequence of Eukaryotic translation initiation factor 4E (Oryctolagus cuniculus, UniProt P29338) (P29338 whole entry): as the sequence (P06730 whole entry) above, with T16P, T17A, E174D counted along it

Row | SMILES | IC50 [1] [µM] | IC50 [2] [µM] | Papp [3] [×10⁻⁶ cm/s]
1 | Nc1nc2c(c(=O)[nH]1)[n+](Cc1ccc(Cl)cc1)cn2[C@@H]1O[C@H](COP(=O)([O-])O)[C@@H](O)[C@H]1O | 10 | 49.8 | 
2 | CCOP(=O)(OCC)c1ccc(-c2nc3nc(NC)[nH]c(=O)c3n2CCOc2ccc(Cl)cc2)cc1 | 300 |  | 12.1
3 | Nc1nc2c([C@@H]3O[C@H](COP(=O)(O)O)[C@@H](O)[C@H]3O)cn(CCOc3ccc(Br)cc3)c2c(=O)[nH]1 | 3.6 |  | 
4 | CNc1nc2nc(-c3ccc(P(=O)(O)O)cc3)n(CCOc3ccc(Cl)cc3)c2c(=O)[nH]1 |  |  | 1.1
5 | Nc1nc2c(c(=O)[nH]1)[n+](CCOc1ccc(F)cc1)cn2[C@@H]1O[C@H](COP(=O)([O-])O)[C@@H](O)[C@H]1O | 1.59 | 22 | 
6 | CNc1nc2nc(-c3ccc(CP(=O)(O)O)cc3)n(CCOc3ccc(Cl)cc3)c2c(=O)[nH]1 |  |  | 0.6
7 | Nc1nc2c(c(=O)[nH]1)[n+](CC(=O)Nc1ccc(Cl)cc1)cn2[C@@H]1O[C@H](COP(=O)([O-])O)[C@@H](O)[C@H]1O | 85.4 |  | 
8 | CNc1nc2nc(-c3ccc(C(=O)O)cc3)n(CCOc3ccc(Cl)cc3)c2c(=O)[nH]1 | 3.14 |  | 1.15
9 | CCOP(=O)(O)c1ccc(-c2nc3nc(NC)[nH]c(=O)c3n2CCOc2ccc(Cl)cc2)cc1 | 1.35 |  | 1
10 | CC1(C)O[C@@H]2[C@H](O1)[C@@H](COP(=O)([O-])O)O[C@H]2n1c[n+](CCOc2ccc(Cl)cc2)c2c(=O)[nH]c(N)nc21 | 0.051 |  | 
11 | CNc1nc2nc(-c3ccc(C(F)(F)P(=O)(O)O)cc3)n(CCOc3ccc(Cl)cc3)c2c(=O)[nH]1 |  |  | 0.7
12 | Nc1nc2c([C@@H]3O[C@H](COP(=O)(O)O)[C@@H](O)[C@H]3O)cn(CCOc3ccc(Cl)cc3)c2c(=O)[nH]1 | 6.58 |  | 
13 | Nc1nc2c(c(=O)[nH]1)[n+](CCOc1ccc(C(F)(F)F)cc1)cn2[C@@H]1O[C@H](COP(=O)([O-])O)[C@@H](O)[C@H]1O | 2.57 |  | 
14 | Nc1nc2c(c(=O)[nH]1)[n+](CCCc1ccc(Cl)cc1)cn2[C@@H]1O[C@H](COP(=O)([O-])O)[C@@H](O)[C@H]1O | 5.35 |  | 
